Data taken from patent US20150265614A1, “ORAL PREPARATION AND METHOD FOR PRODUCING THE SAME” (CHUNG-ANG UNIVERSITY INDUSTRY-ACADEMY COOPERATION FOUNDATION, priority 2012, published 2015).

Test: laser scattering particle size analysis of naproxen crystal particles
Format: physicochemical
Details: HORIBA LA-910 laser scattering particle size analyzer
Description: The sizes of the crystal particles of naproxen prepared in Examples 6 and 7 and Comparative Example 2 were observed. Specifically, the degree of dispersion of the particle sizes of a nonsteroidal anti-inflammatory drug (NSAID) agent naproxen ((+)-(S)-2-(6-methoxynaphthalen-2-yl)propanoic acid) was observed by using HORIBA LA-910 LASER SCATTERING PARTICLE SIZE ANALYZER. The observation results are each illustrated in FIGS. 16 to 18.

average particle diameter / average crystal size of naproxen: 9.5 μm
Structure (SMILES): COc1ccc2cc([C@H](C)C(=O)O)ccc2c1 [Comparative Example 2, (+)-(s)-2-(6-methoxynaphthalen-2-yl)propanoic acid]
